Assay results reported in the NIST ThermoML archive (doi:10.1016/j.fluid.2008.09.004).

Assays:
[1] = molar heat capacity at constant pressure; xn = mol fraction of the nth substance listed; details: 101 kPa, Liquid, Small sample (50 mg) DSC
[2] = excess molar enthalpy (molar enthalpy of mixing); xn = mol fraction of the nth substance listed; details: 303.15 K, 101 kPa, Liquid, Calvet calorimetry
[3] = xn = mol fraction of the nth substance listed; details: 101 kPa, Liquid, Vibrating tube method

CCOS(=O)(=O)[O-].CCn1cc[n+](C)c1 [1-ethyl-3-methylimidazolium ethyl sulfate] + CCO
Details	mass density, [3] [kg/m3]	molar heat capacity at constant pressure, [1] [J/K/mol]
293.15 K, x1 = 0.0157	813.7	114.9
293.15 K, x1 = 0.05	860	–
293.15 K, x1 = 0.0523	862.6	124.6
293.15 K, x1 = 0.0978	913.4	137.1
293.15 K, x1 = 0.0991	914.6	–
293.15 K, x1 = 0.1944	996	163.7
293.15 K, x1 = 0.3073	1063.7	194.6
293.15 K, x1 = 0.4109	1109.6	223.4
293.15 K, x1 = 0.5084	1143.2	250.8
293.15 K, x1 = 0.5927	1167	274.9
293.15 K, x1 = 0.6995	1191.8	305.4
293.15 K, x1 = 0.7883	1208.9	331.1
293.15 K, x1 = 0.8797	1223.9	357.4
293.15 K, x1 = 0.9388	1232.5	374.4
298.15 K, x1 = 0.0157	809.5	116.8
298.15 K, x1 = 0.05	855.9	–
298.15 K, x1 = 0.0523	858.5	126.2
298.15 K, x1 = 0.0978	909.4	138.5
298.15 K, x1 = 0.0991	910.6	–
298.15 K, x1 = 0.1944	992.1	165
298.15 K, x1 = 0.3073	1060	195.9
298.15 K, x1 = 0.4109	1105.9	224.8
298.15 K, x1 = 0.5084	1139.6	252.3
298.15 K, x1 = 0.5927	1163.4	276.5
298.15 K, x1 = 0.6995	1188.3	307.2
298.15 K, x1 = 0.7883	1205.4	333
298.15 K, x1 = 0.8797	1220.5	359.4
298.15 K, x1 = 0.9388	1229.1	376.5
303.15 K, x1 = 0.0157	805.3	118.6
303.15 K, x1 = 0.05	851.8	–
303.15 K, x1 = 0.0523	854.4	127.9
303.15 K, x1 = 0.0978	905.3	139.9
303.15 K, x1 = 0.0991	906.6	–
303.15 K, x1 = 0.1944	988.3	166.3
303.15 K, x1 = 0.3073	1056.3	197.2
303.15 K, x1 = 0.4109	1102.3	226.3
303.15 K, x1 = 0.5084	1136	254
303.15 K, x1 = 0.5927	1159.9	278.3
303.15 K, x1 = 0.6995	1184.8	309
303.15 K, x1 = 0.7883	1202	335
303.15 K, x1 = 0.8797	1217.1	361.6
303.15 K, x1 = 0.9388	1225.7	378.8
308.15 K, x1 = 0.0157	801	120.7
308.15 K, x1 = 0.05	847.7	–
308.15 K, x1 = 0.0523	850.3	129.7
308.15 K, x1 = 0.0978	901.3	141.6
308.15 K, x1 = 0.0991	902.6	–
308.15 K, x1 = 0.1944	984.4	167.7
308.15 K, x1 = 0.3073	1052.6	198.8
308.15 K, x1 = 0.4109	1098.7	227.9
308.15 K, x1 = 0.5084	1132.5	255.8
308.15 K, x1 = 0.5927	1156.4	280.3
308.15 K, x1 = 0.6995	1181.4	311.1
308.15 K, x1 = 0.7883	1198.5	337.2
308.15 K, x1 = 0.8797	1213.7	364
308.15 K, x1 = 0.9388	1222.3	381.3
313.15 K, x1 = 0.0157	796.7	122.8
313.15 K, x1 = 0.05	843.5	–
313.15 K, x1 = 0.0523	846.1	131.6
313.15 K, x1 = 0.0978	897.3	143.2
313.15 K, x1 = 0.0991	898.5	–
313.15 K, x1 = 0.1944	980.6	169.2
313.15 K, x1 = 0.3073	1048.8	200.4
313.15 K, x1 = 0.4109	1095	229.6
313.15 K, x1 = 0.5084	1128.9	257.6
313.15 K, x1 = 0.5927	1152.9	282.3
313.15 K, x1 = 0.6995	1177.9	313.3
313.15 K, x1 = 0.7883	1195.1	339.5
313.15 K, x1 = 0.8797	1210.2	366.5
313.15 K, x1 = 0.9388	1218.9	383.9
318.15 K, x1 = 0.0157	792.3	125
318.15 K, x1 = 0.05	839.2	–
318.15 K, x1 = 0.0523	841.9	133.6
318.15 K, x1 = 0.0978	893.2	145
318.15 K, x1 = 0.0991	894.4	–
318.15 K, x1 = 0.1944	976.6	170.9
318.15 K, x1 = 0.3073	1045.1	202.2
318.15 K, x1 = 0.4109	1091.4	231.5
318.15 K, x1 = 0.5084	1125.3	259.7
318.15 K, x1 = 0.5927	1149.3	284.5
318.15 K, x1 = 0.6995	1174.4	315.6
318.15 K, x1 = 0.7883	1191.7	342
318.15 K, x1 = 0.8797	1206.9	369.1
318.15 K, x1 = 0.9388	1215.5	386.7

[2]
Details	excess molar enthalpy [kcal/mol]
x1 = 0.0486	0.125
x1 = 0.1198	0.26
x1 = 0.1961	0.302
x1 = 0.2952	0.315
x1 = 0.3917	0.297
x1 = 0.4937	0.276
x1 = 0.6087	0.22
x1 = 0.7017	0.171
x1 = 0.7963	0.118
x1 = 0.8774	0.0731
